Reference: PubChem BioAssay (NCI)
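Growth conditions: 96-well plates. Treatment: test compound, 48 hours, 5 concentrations. Analysis: linear interpolation between bracketing concentrations; unreached endpoints set to highest concentration. Definition used: TGI = concentration required for complete inhibition of growth.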

Tests used:
Test in all cases: inhibition of tumour cell growth, NCI panel, 48 h
UACC-257 melanoma = test system: UACC-257 melanoma
BT-549 breast = test system: BT-549 breast
OVCAR-3 ovarian = test system: OVCAR-3 ovarian
NCI-H226 lung = test system: NCI-H226 lung
RPMI-8226 leukemia = test system: RPMI-8226 leukemia
SW-620 colon = test system: SW-620 colon
MCF7 breast = test system: MCF7 breast
HCT-116 colon = test system: HCT-116 colon
RXF 393 renal = test system: RXF 393 renal
A549 NSCLC = test system: A549 NSCLC
SK-OV-3 ovarian = test system: SK-OV-3 ovarian
EKVX NSCLC = test system: EKVX NSCLC
SF-295 CNS = test system: SF-295 CNS
K-562 leukemia = test system: K-562 leukemia
HCT-15 colon = test system: HCT-15 colon
SK-MEL-5 melanoma = test system: SK-MEL-5 melanoma
HOP-62 NSCLC = test system: HOP-62 NSCLC
M14 melanoma = test system: M14 melanoma
SN12C renal = test system: SN12C renal
KM12 colon = test system: KM12 colon
OVCAR-5 ovarian = test system: OVCAR-5 ovarian
SK-MEL-28 melanoma = test system: SK-MEL-28 melanoma
SK-MEL-2 melanoma = test system: SK-MEL-2 melanoma
SNB-19 CNS = test system: SNB-19 CNS
SR leukemia = test system: SR leukemia
OVCAR-4 ovarian = test system: OVCAR-4 ovarian
MALME-3M melanoma = test system: MALME-3M melanoma
NCI/ADR-RES ovarian = test system: NCI/ADR-RES ovarian
HT29 colon = test system: HT29 colon
PC-3 prostate = test system: PC-3 prostate
MDA-MB-435 = test system: MDA-MB-435
IGROV1 ovarian = test system: IGROV1 ovarian
CAKI-1 renal = test system: CAKI-1 renal
NCI-H522 lung = test system: NCI-H522 lung
SF-539 CNS = test system: SF-539 CNS
COLO 205 colon = test system: COLO 205 colon
MDA-N = test system: MDA-N
NCI-H23 lung = test system: NCI-H23 lung
CCRF-CEM leukemia = test system: CCRF-CEM leukemia
UO-31 renal = test system: UO-31 renal
U251 CNS = test system: U251 CNS
TK-10 renal = test system: TK-10 renal
OVCAR-8 ovarian = test system: OVCAR-8 ovarian
MOLT-4 leukemia = test system: MOLT-4 leukemia
DU-145 prostate = test system: DU-145 prostate
ACHN renal = test system: ACHN renal
SF-268 CNS = test system: SF-268 CNS
786-0 renal = test system: 786-0 renal
MDA-MB-231 breast = test system: MDA-MB-231 breast
LOX IMVI melanoma = test system: LOX IMVI melanoma
HS 578T breast = test system: HS 578T breast
HL-60(TB) leukemia = test system: HL-60(TB) leukemia
SNB-75 CNS = test system: SNB-75 CNS
A498 renal = test system: A498 renal
HOP-92 NSCLC = test system: HOP-92 NSCLC
UACC-62 melanoma = test system: UACC-62 melanoma

COc1ccc2c3c(c4cc(OC)c(OC)cc4c2c1)CN1CCC[C@H]1[C@@H]3O
TGI (UACC-257 melanoma): 0.544 µM | TGI (BT-549 breast): 6.76 µM | TGI (OVCAR-3 ovarian): > 21.1 µM | TGI (NCI-H226 lung): 11.5 µM | TGI (RPMI-8226 leukemia): 5.17 µM | TGI (SW-620 colon): > 39.8 µM | TGI (MCF7 breast): > 100 µM | TGI (HCT-116 colon): 1.22 µM | TGI (RXF 393 renal): 7.64 µM | TGI (A549 NSCLC): > 55.4 µM | TGI (SK-OV-3 ovarian): > 100 µM | TGI (EKVX NSCLC): 0.578 µM | TGI (SF-295 CNS): 4.03 µM | TGI (K-562 leukemia): 0.653 µM | TGI (HCT-15 colon): 1.19 µM | TGI (SK-MEL-5 melanoma): 0.398 µM | TGI (HOP-62 NSCLC): 2.81 µM | TGI (M14 melanoma): 1.3 µM | TGI (SN12C renal): 0.237 µM | TGI (KM12 colon): 0.341 µM | TGI (OVCAR-5 ovarian): > 28.3 µM | TGI (SK-MEL-28 melanoma): 0.667 µM | TGI (SK-MEL-2 melanoma): 0.591 µM | TGI (SNB-19 CNS): 2.13 µM | TGI (SR leukemia): 4.87 µM | TGI (OVCAR-4 ovarian): 31.2 µM | TGI (MALME-3M melanoma): 0.829 µM | TGI (NCI/ADR-RES ovarian): 26.1 µM | TGI (HT29 colon): 0.373 µM | TGI (PC-3 prostate): > 41.9 µM | TGI (MDA-MB-435): 4.21 µM | TGI (IGROV1 ovarian): 0.326 µM | TGI (CAKI-1 renal): 0.234 µM | TGI (NCI-H522 lung): 2.85 µM | TGI (SF-539 CNS): 0.829 µM | TGI (COLO 205 colon): 0.304 µM | TGI (MDA-N): 0.706 µM | TGI (NCI-H23 lung): 0.169 µM

N#Cc1nc(-c2ccsc2)oc1N
TGI (CCRF-CEM leukemia): > 100 µM | TGI (UO-31 renal): > 100 µM | TGI (UACC-257 melanoma): > 100 µM | TGI (U251 CNS): > 100 µM | TGI (RPMI-8226 leukemia): > 100 µM | TGI (SW-620 colon): > 100 µM | TGI (TK-10 renal): > 100 µM | TGI (MCF7 breast): > 100 µM | TGI (HCT-116 colon): > 100 µM | TGI (RXF 393 renal): > 100 µM | TGI (A549 NSCLC): > 100 µM | TGI (OVCAR-8 ovarian): > 100 µM | TGI (SK-OV-3 ovarian): > 100 µM | TGI (EKVX NSCLC): > 100 µM | TGI (K-562 leukemia): > 100 µM | TGI (HCT-15 colon): > 100 µM | TGI (SK-MEL-5 melanoma): > 100 µM | TGI (MOLT-4 leukemia): > 100 µM | TGI (HOP-62 NSCLC): > 100 µM | TGI (DU-145 prostate): > 100 µM | TGI (M14 melanoma): > 100 µM | TGI (ACHN renal): > 100 µM | TGI (SN12C renal): > 100 µM | TGI (KM12 colon): > 100 µM | TGI (OVCAR-5 ovarian): > 100 µM | TGI (SK-MEL-28 melanoma): > 100 µM | TGI (SK-MEL-2 melanoma): > 100 µM | TGI (SF-268 CNS): > 100 µM | TGI (786-0 renal): > 100 µM | TGI (MDA-MB-231 breast): > 100 µM | TGI (SNB-19 CNS): > 100 µM | TGI (LOX IMVI melanoma): > 100 µM | TGI (SR leukemia): > 100 µM | TGI (HS 578T breast): > 100 µM | TGI (HL-60(TB) leukemia): > 100 µM | TGI (HT29 colon): > 100 µM | TGI (SNB-75 CNS): > 100 µM | TGI (PC-3 prostate): > 100 µM | TGI (MDA-MB-435): > 100 µM | TGI (IGROV1 ovarian): > 100 µM | TGI (CAKI-1 renal): > 100 µM | TGI (A498 renal): > 100 µM | TGI (MDA-N): > 100 µM | TGI (HOP-92 NSCLC): > 100 µM | TGI (UACC-62 melanoma): > 100 µM
